# Measurements reported in ChEMBL document CHEMBL1926602, “Anisotropy studies of tRNA-T box antiterminator RNA complex in the presence of 1,4-disubstituted 1,2,3-triazoles” (Bioorg Med Chem Lett, 2011).
# Test system: Nucleic Acid
# Assay: Inhibition of A73U tRNA(Tyr)-5'Rhd-AM1A T box antiterminator RNA complex assessed as reduction in anisotrophy changes by at 100 uM by fluorescence anisotropy-based assay relative to untreated control
# Assay type: nucleic-acid assay
row,SMILES,inhibition
1,CC(C)CCN(C)Cc1cn(CC(O)COC(=O)C2CCCCC2)nn1 (stereo not given),0%
2,CCCCCCCC(=O)OCC(O)Cn1cc(CN2CCOCC2)nn1 (stereo not given),0%
3,CCCCN(CCCC)Cc1cn(C2CCCCC2OC(=O)COc2ccccc2)nn1 (stereo not given),26%
4,CCCCCCCC(=O)OCC(O)Cn1cc(CN(CCCC)CCCC)nn1 (stereo not given),71%
5,OC1CCCCC1n1cc(CN2CCC(c3ccccc3)CC2)nn1 (stereo not given),42%
6,CC(C)CCN(C)Cc1cn(C2CCCCC2OC(=O)COc2ccccc2)nn1 (stereo not given),59%
7,CCCCC(O)Cn1cc(CN(C)CCC(C)C)nn1 (stereo not given),47%
8,CCCCCCCC(=O)OCC(O)Cn1cc(CN2CCN(c3ccccc3)CC2)nn1 (stereo not given),26%
9,CCCCNC(=O)OCC(O)Cn1cc(CN2CCCC(C(=O)OCC)C2)nn1 (stereo not given),24%
10,CCCCNC(=O)OCC(O)Cn1cc(CN2CCN(c3ccccc3)CC2)nn1 (stereo not given),11%
11,O=C(COc1ccccc1)OC1CCCCC1n1cc(CN2CCN(c3ccccc3)CC2)nn1 (stereo not given),37%
12,O=C(OC1CCCCC1n1cc(CN2CCN(c3ccccc3)CC2)nn1)c1ccccc1 (stereo not given),21%
13,CCCCC(O)Cn1cc(CN(CCCC)CCCC)nn1 (stereo not given),18%
14,O=C(COc1ccccc1)OC1CCCCC1n1cc(CN2CCOCC2)nn1 (stereo not given),5%
15,CCCCNC(=O)OCC(O)Cn1cc(CN2CCOCC2)nn1 (stereo not given),5%
16,CCOC(=O)C1CCCN(Cc2cn(CC(O)COC(=O)NCc3ccccc3)nn2)C1 (stereo not given),47%
17,CN(Cc1cn(C2CCCCC2O)nn1)CC1CCCCC1 (stereo not given),47%
18,CCCCN(CCCC)Cc1cn(C2CCCCC2O)nn1 (stereo not given),32%
19,CCCCNC(=O)OCC(O)Cn1cc(CN(C)CCC(C)C)nn1 (stereo not given),24%

row,SMILES,inhibition
1,CCOC(=O)C1CCCN(Cc2cn(C3CCCCC3O)nn2)C1 (stereo not given),16%
2,CCOC(=O)C1CCCN(Cc2cn(C3CCCCC3OC(=O)Cc3ccccc3)nn2)C1 (stereo not given),21%
3,CN(Cc1cn(C2CCCCC2OC(=O)COc2ccccc2)nn1)CC1CCCCC1 (stereo not given),37%
4,CCOC(=O)C1CCCN(Cc2cn(C3CCCCC3OC(=O)COc3ccccc3)nn2)C1 (stereo not given),21%
5,CN(Cc1cn(C2CCCCC2OC(=O)c2ccccc2)nn1)CC1CCCCC1 (stereo not given),32%
6,OC1CCCCC1n1cc(CN2CCN(c3ccccc3)CC2)nn1 (stereo not given),47%
7,CCCCC(O)Cn1cc(CN(C)CC2CCCCC2)nn1 (stereo not given),47%
8,CCCCC(O)Cn1cc(CN2CCCC(C(=O)OCC)C2)nn1 (stereo not given),53%
9,CC(C)CCN(C)Cc1cn(C2CCCCC2O)nn1 (stereo not given),42%
10,CCCCNC(=O)OCC(O)Cn1cc(CN(C)CC2CCCCC2)nn1 (stereo not given),12%
11,CCCCN(CCCC)Cc1cn(CC(O)COC(=O)C2CCCCC2)nn1 (stereo not given),12%
12,CCCCN(CCCC)Cc1cn(C2CCCCC2OC(=O)Cc2ccccc2)nn1 (stereo not given),53%
13,O=C(OCC(O)Cn1cc(CN2CCOCC2)nn1)C1CCCCC1 (stereo not given),11%
14,CCCCC(O)Cn1cc(CN2CCOCC2)nn1 (stereo not given),0%
15,CCOC(=O)C1CCCN(Cc2cn(C3CCCCC3OC(=O)c3ccccc3)nn2)C1 (stereo not given),11%
16,CN(Cc1cn(CC(O)COC(=O)C2CCCCC2)nn1)CC1CCCCC1 (stereo not given),18%
17,O=C(COc1ccccc1)OC1CCCCC1n1cc(CN2CCC(c3ccccc3)CC2)nn1 (stereo not given),42%
18,CCOC(=O)C1CCCN(Cc2cn(CC(O)COC(=O)c3ccccc3)nn2)C1 (stereo not given),6%

# Next, values leading:
row,inhibition,SMILES
1,42%,CN(CCCc1ccccc1)Cc1cn(C2CCCCC2OC(=O)COc2ccccc2)nn1 (stereo not given)
2,32%,O=C(NCc1ccccc1)OCC(O)Cn1cc(CN2CCN(c3ccccc3)CC2)nn1 (stereo not given)
3,32%,CN(Cc1cn(CC(O)COC(=O)NCc2ccccc2)nn1)CC1CCCCC1 (stereo not given)
4,32%,CN(CCc1ccccc1)Cc1cn(C2CCCCC2OC(=O)COc2ccccc2)nn1 (stereo not given)
5,12%,CCCCCCCC(=O)OCC(O)Cn1cc(CN(C)CCCc2ccccc2)nn1 (stereo not given)
6,0%,CN(CCc1ccccc1)Cc1cn(CC(O)COC(=O)c2ccccc2)nn1 (stereo not given)
7,11%,O=C(OCC(O)Cn1cc(CN2CCN(c3ccccc3)CC2)nn1)c1ccccc1 (stereo not given)
8,16%,O=C(OC1CCCCC1n1cc(CN2CCC(c3ccccc3)CC2)nn1)c1ccccc1 (stereo not given)
9,16%,CCCCC(O)Cn1cc(CN2CCC(c3ccccc3)CC2)nn1 (stereo not given)
10,12%,CN(CCCc1ccccc1)Cc1cn(CC(O)COC(=O)c2ccccc2)nn1 (stereo not given)
11,37%,OC(COCc1ccccc1)Cn1cc(CN2CCN(c3ccccc3)CC2)nn1 (stereo not given)
12,79%,CN(CCCc1ccccc1)Cc1cn(CC(O)COC(=O)NCc2ccccc2)nn1 (stereo not given)
13,5%,CN(Cc1cn(C2CCCCC2OC(=O)Cc2ccccc2)nn1)CC1CCCCC1 (stereo not given)
14,0%,CC(C)CCN(C)Cc1cn(CC(O)COC(=O)c2ccccc2)nn1 (stereo not given)
15,18%,CN(CCc1ccccc1)Cc1cn(CC(O)COCc2ccccc2)nn1 (stereo not given)
16,18%,CN(CCCc1ccccc1)Cc1cn(CC(O)COCc2ccccc2)nn1 (stereo not given)
17,42%,CN(CCc1ccccc1)Cc1cn(CC(O)COC(=O)NCc2ccccc2)nn1 (stereo not given)

row,inhibition,SMILES
1,26%,CC(C)CCN(C)Cc1cn(CC(O)COC(=O)NCc2ccccc2)nn1 (stereo not given)
2,58%,CC(C)CCN(C)Cc1cn(CC(O)c2ccccc2)nn1 (stereo not given)
3,6%,CCCCN(CCCC)Cc1cn(CC(O)COCc2ccccc2)nn1 (stereo not given)
4,47%,CCCCC(O)Cn1cc(CN2CCN(c3ccccc3)CC2)nn1 (stereo not given)
5,6%,CN(Cc1cn(CC(O)COC(=O)c2ccccc2)nn1)CC1CCCCC1 (stereo not given)
6,42%,CCCCN(CCCC)Cc1cn(CC(O)COC(=O)NCc2ccccc2)nn1 (stereo not given)
7,26%,CCOC(=O)C1CCCN(Cc2cn(CC(O)COCc3ccccc3)nn2)C1 (stereo not given)
8,29%,O=C(NCc1ccccc1)OCC(O)Cn1cc(CN2CCC(c3ccccc3)CC2)nn1 (stereo not given)
9,29%,CCCCC(O)Cn1cc(CN(C)CCc2ccccc2)nn1 (stereo not given)
10,21%,CN(CCc1ccccc1)Cc1cn(C2CCCCC2O)nn1 (stereo not given)
11,6%,CN(Cc1cn(CC(O)COCc2ccccc2)nn1)CC1CCCCC1 (stereo not given)
12,32%,CN(Cc1ccccc1)Cc1cn(CC(O)c2ccccc2)nn1 (stereo not given)
13,32%,OC(Cn1cc(CN2CCN(c3ccccc3)CC2)nn1)c1ccccc1 (stereo not given)
14,37%,CCCCC(O)Cn1cc(CN(C)CCCc2ccccc2)nn1 (stereo not given)
15,12%,CCCCN(CCCC)Cc1cn(CC(O)COC(=O)c2ccccc2)nn1 (stereo not given)
16,5%,O=C(OCC(O)Cn1cc(CN2CCOCC2)nn1)c1ccccc1 (stereo not given)
17,26%,CC(C)CCN(C)Cc1cn(C2CCCCC2OC(=O)c2ccccc2)nn1 (stereo not given)

# Test system: Nucleic Acid
# Assay: Stabilization of A73U tRNA(Tyr)-5'Rhd-AM1A T box antiterminator RNA complex assessed as increase in anisotrophy changes by at 100 uM by fluorescence anisotropy-based assay relative to untreated control
# Assay type: nucleic-acid assay
row,SMILES,Activity
1,O=C(OC1CCCCC1n1cc(CN2CCOCC2)nn1)c1ccccc1 (stereo not given),6%
2,CCOC(=O)C1CCCN(Cc2cn(CC(O)COC(=O)C3CCCCC3)nn2)C1 (stereo not given),6%
3,OC1CCCCC1n1cc(CN2CCOCC2)nn1 (stereo not given),24%
4,CCCCNC(=O)OCC(O)Cn1cc(CN(CCCC)CCCC)nn1 (stereo not given),18%
5,O=C(Cc1ccccc1)OC1CCCCC1n1cc(CN2CCOCC2)nn1 (stereo not given),6%

# Continued, values first:
row,Activity,SMILES
1,6%,OC(Cn1cc(CN2CCOCC2)nn1)c1ccccc1 (stereo not given)
2,12%,OC(COCc1ccccc1)Cn1cc(CN2CCOCC2)nn1 (stereo not given)
3,6%,CN(Cc1cn(CC(O)c2ccccc2)nn1)CC1CCCCC1 (stereo not given)
4,6%,CCOC(=O)C1CCCN(Cc2cn(CC(O)c3ccccc3)nn2)C1 (stereo not given)
